Assays:
CSF1R-autoinhibited = target: T1, CSF1R-autoinhibited (Homo sapiens, UniProt P07333); assay: KINOMEscan; format: binding; conditions: read-out: %Ctrl @ 10000nM
T1 construct: purchased DiscoverX KINOMEscan

ALK(C1156Y) = target: T2, ALK(C1156Y) (Homo sapiens, UniProt Q9UM73, C1156Y); assay: KINOMEscan; format: binding; conditions: read-out: %Ctrl @ 10000nM
T2 construct: purchased DiscoverX KINOMEscan

KIT = target: T3, KIT (Homo sapiens, UniProt P10721); assay: KINOMEscan; format: binding; conditions: read-out: %Ctrl @ 10000nM
T3 construct: purchased DiscoverX KINOMEscan

EPHB3 = target: T4, EPHB3 (Homo sapiens, UniProt P54753); assay: KINOMEscan; format: binding; conditions: read-out: %Ctrl @ 10000nM
T4 construct: purchased DiscoverX KINOMEscan

GRK4 = target: T5, GRK4 (Homo sapiens, UniProt P32298); assay: KINOMEscan; format: binding; conditions: read-out: %Ctrl @ 10000nM
T5 construct: purchased DiscoverX KINOMEscan

MUSK = target: T6, MUSK (Homo sapiens, UniProt O15146); assay: KINOMEscan; format: binding; conditions: read-out: %Ctrl @ 10000nM
T6 construct: purchased DiscoverX KINOMEscan

MYLK2 = target: T7, MYLK2 (Homo sapiens, UniProt Q9H1R3); assay: KINOMEscan; format: binding; conditions: read-out: %Ctrl @ 10000nM
T7 construct: purchased DiscoverX KINOMEscan

NEK9 = target: T8, NEK9 (Homo sapiens, UniProt Q8TD19); assay: KINOMEscan; format: binding; conditions: read-out: %Ctrl @ 10000nM
T8 construct: purchased DiscoverX KINOMEscan

JNK2 = target: T9, JNK2 (Homo sapiens, UniProt P45984); assay: KINOMEscan; format: binding; conditions: read-out: %Ctrl @ 10000nM
T9 construct: purchased DiscoverX KINOMEscan

DAPK3 = target: T10, DAPK3 (Homo sapiens, UniProt O43293); assay: KINOMEscan; format: binding; conditions: read-out: %Ctrl @ 10000nM
T10 construct: purchased DiscoverX KINOMEscan

PLK1 = target: T11, PLK1 (Homo sapiens, UniProt P53350); assay: KINOMEscan; format: binding; conditions: read-out: %Ctrl @ 10000nM
T11 construct: purchased DiscoverX KINOMEscan

NEK10 = target: T12, NEK10 (Homo sapiens, UniProt Q6ZWH5); assay: KINOMEscan; format: binding; conditions: read-out: %Ctrl @ 10000nM
T12 construct: purchased DiscoverX KINOMEscan

ACVR2B = target: T13, ACVR2B (Homo sapiens, UniProt Q13705); assay: KINOMEscan; format: binding; conditions: read-out: %Ctrl @ 10000nM
T13 construct: purchased DiscoverX KINOMEscan

ZAP70 = target: T14, ZAP70 (Homo sapiens, UniProt P43403); assay: KINOMEscan; format: binding; conditions: read-out: %Ctrl @ 10000nM
T14 construct: purchased DiscoverX scanMAX; host or cells: E. coli BL21-derived host (T7 phage) or HEK-293

TGFBR2 = target: T15, TGFBR2 (Homo sapiens, UniProt P37173); assay: KINOMEscan; format: binding; conditions: read-out: %Ctrl @ 10000nM
T15 construct: purchased DiscoverX KINOMEscan

MKNK1 = target: T16, MKNK1 (Homo sapiens, UniProt Q9BUB5); assay: KINOMEscan; format: binding; conditions: read-out: %Ctrl @ 10000nM
T16 construct: purchased DiscoverX KINOMEscan

ERBB2 = target: T17, ERBB2 (Homo sapiens, UniProt P04626); assay: KINOMEscan; format: binding; conditions: read-out: %Ctrl @ 10000nM
T17 construct: purchased DiscoverX KINOMEscan

NEK6 = target: T18, NEK6 (Homo sapiens, UniProt Q9HC98); assay: KINOMEscan; format: binding; conditions: read-out: %Ctrl @ 10000nM
T18 construct: purchased DiscoverX KINOMEscan

ACVR1 = target: T19, ACVR1 (Homo sapiens, UniProt Q04771); assay: KINOMEscan; format: binding; conditions: read-out: %Ctrl @ 10000nM
T19 construct: purchased DiscoverX KINOMEscan

RIPK4 = target: T20, RIPK4 (Homo sapiens, UniProt P57078); assay: KINOMEscan; format: binding; conditions: read-out: %Ctrl @ 10000nM
T20 construct: purchased DiscoverX KINOMEscan

TRKA = target: T21, TRKA (Homo sapiens, UniProt P04629); assay: KINOMEscan; format: binding; conditions: read-out: %Ctrl @ 10000nM
T21 construct: purchased DiscoverX KINOMEscan

Plasma stability = format: in vitro ADME; conditions: rat, read-out: Plasma Stability T1/2 (converted)
PAK6 = target: T22, PAK6 (Homo sapiens, UniProt Q9NQU5); assay: KINOMEscan; format: binding; conditions: read-out: %Ctrl @ 10000nM
T22 construct: purchased DiscoverX KINOMEscan

CDK4 = target: T23, CDK4 (Homo sapiens, UniProt P11802); assay: KINOMEscan; format: binding; conditions: read-out: %Ctrl @ 10000nM
T23 construct: purchased DiscoverX KINOMEscan

TIE1 = target: T24, TIE1 (Homo sapiens, UniProt P35590); assay: KINOMEscan; format: binding; conditions: read-out: %Ctrl @ 10000nM
T24 construct: purchased DiscoverX KINOMEscan

PLK3 = target: T25, PLK3 (Homo sapiens, UniProt Q9H4B4); assay: KINOMEscan; format: binding; conditions: read-out: %Ctrl @ 10000nM
T25 construct: purchased DiscoverX KINOMEscan

FLT1 = target: T26, FLT1 (Homo sapiens, UniProt P17948); assay: KINOMEscan; format: binding; conditions: read-out: %Ctrl @ 10000nM
T26 construct: purchased DiscoverX KINOMEscan

MERTK = target: T27, MERTK (Homo sapiens, UniProt Q12866); assay: KINOMEscan; format: binding; conditions: read-out: %Ctrl @ 10000nM
T27 construct: purchased DiscoverX KINOMEscan

PIK3CA(Q546K) = target: T28, PIK3CA(Q546K) (Homo sapiens, UniProt P42336, Q546K); assay: KINOMEscan; format: binding; conditions: read-out: %Ctrl @ 10000nM
T28 construct: purchased DiscoverX KINOMEscan

CLK1 = target: T29, CLK1 (Homo sapiens, UniProt P49759); assay: KINOMEscan; format: binding; conditions: read-out: %Ctrl @ 10000nM
T29 construct: purchased DiscoverX KINOMEscan

MAST1 = target: T30, MAST1 (Homo sapiens, UniProt Q9Y2H9); assay: KINOMEscan; format: binding; conditions: read-out: %Ctrl @ 10000nM
T30 construct: purchased DiscoverX KINOMEscan

ERK4 = target: T31, ERK4 (Homo sapiens, UniProt P31152); assay: KINOMEscan; format: binding; conditions: read-out: %Ctrl @ 10000nM
T31 construct: purchased DiscoverX KINOMEscan

MYO3A = target: T32, MYO3A (Homo sapiens, UniProt Q8NEV4); assay: KINOMEscan; format: binding; conditions: read-out: %Ctrl @ 10000nM
T32 construct: purchased DiscoverX KINOMEscan

TTK = target: T33, TTK (Homo sapiens, UniProt P33981); assay: KINOMEscan; format: binding; conditions: read-out: %Ctrl @ 10000nM
T33 construct: DNA label for qPCR (T7 phage fusion or DNA tag); purchased DiscoverX scanMAX; host or cells: E. coli BL21-derived (T7 phage) or HEK-293

PIK3CA(E542K) = target: T34, PIK3CA(E542K) (Homo sapiens, UniProt P42336, E542K); assay: KINOMEscan; format: binding; conditions: read-out: %Ctrl @ 10000nM
T34 construct: purchased DiscoverX KINOMEscan

NEK7 = target: T35, NEK7 (Homo sapiens, UniProt Q8TDX7); assay: KINOMEscan; format: binding; conditions: read-out: %Ctrl @ 10000nM
T35 construct: purchased DiscoverX KINOMEscan

STK33 = target: T36, STK33 (Homo sapiens, UniProt Q9BYT3); assay: KINOMEscan; format: binding; conditions: read-out: %Ctrl @ 10000nM
T36 construct: purchased DiscoverX KINOMEscan

GAK = target: T37, GAK (Homo sapiens, UniProt O14976); assay: KINOMEscan; format: binding; conditions: read-out: %Ctrl @ 10000nM
T37 construct: purchased DiscoverX KINOMEscan

BRAF = target: T38, BRAF (Homo sapiens, UniProt P15056); assay: KINOMEscan; format: binding; conditions: read-out: %Ctrl @ 10000nM
T38 construct: purchased DiscoverX KINOMEscan

SLK = target: T39, SLK (Homo sapiens, UniProt Q9H2G2); assay: KINOMEscan; format: binding; conditions: read-out: %Ctrl @ 10000nM
T39 construct: purchased DiscoverX KINOMEscan

TNK1 = target: T40, TNK1 (Homo sapiens, UniProt Q13470); assay: KINOMEscan; format: binding; conditions: read-out: %Ctrl @ 10000nM
T40 construct: purchased DiscoverX KINOMEscan

ARK5 = target: T41, ARK5 (Homo sapiens, UniProt O60285); assay: KINOMEscan; format: binding; conditions: read-out: %Ctrl @ 10000nM
T41 construct: purchased DiscoverX KINOMEscan

PIM2 = target: T42, PIM2 (Homo sapiens, UniProt Q9P1W9); assay: KINOMEscan; format: binding; conditions: read-out: %Ctrl @ 10000nM
T42 construct: purchased DiscoverX KINOMEscan
T42 sequence (Q9P1W9 whole entry): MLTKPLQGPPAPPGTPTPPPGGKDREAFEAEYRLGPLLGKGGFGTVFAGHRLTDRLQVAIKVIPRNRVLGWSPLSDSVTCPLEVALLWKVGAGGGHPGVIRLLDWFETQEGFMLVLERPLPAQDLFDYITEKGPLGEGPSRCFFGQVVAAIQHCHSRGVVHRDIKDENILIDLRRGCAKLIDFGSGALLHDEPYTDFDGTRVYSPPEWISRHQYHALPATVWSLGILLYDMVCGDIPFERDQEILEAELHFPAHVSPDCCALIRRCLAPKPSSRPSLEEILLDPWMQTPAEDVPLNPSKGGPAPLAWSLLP

T33 sequence (P33981 whole entry, the tested form may be a part): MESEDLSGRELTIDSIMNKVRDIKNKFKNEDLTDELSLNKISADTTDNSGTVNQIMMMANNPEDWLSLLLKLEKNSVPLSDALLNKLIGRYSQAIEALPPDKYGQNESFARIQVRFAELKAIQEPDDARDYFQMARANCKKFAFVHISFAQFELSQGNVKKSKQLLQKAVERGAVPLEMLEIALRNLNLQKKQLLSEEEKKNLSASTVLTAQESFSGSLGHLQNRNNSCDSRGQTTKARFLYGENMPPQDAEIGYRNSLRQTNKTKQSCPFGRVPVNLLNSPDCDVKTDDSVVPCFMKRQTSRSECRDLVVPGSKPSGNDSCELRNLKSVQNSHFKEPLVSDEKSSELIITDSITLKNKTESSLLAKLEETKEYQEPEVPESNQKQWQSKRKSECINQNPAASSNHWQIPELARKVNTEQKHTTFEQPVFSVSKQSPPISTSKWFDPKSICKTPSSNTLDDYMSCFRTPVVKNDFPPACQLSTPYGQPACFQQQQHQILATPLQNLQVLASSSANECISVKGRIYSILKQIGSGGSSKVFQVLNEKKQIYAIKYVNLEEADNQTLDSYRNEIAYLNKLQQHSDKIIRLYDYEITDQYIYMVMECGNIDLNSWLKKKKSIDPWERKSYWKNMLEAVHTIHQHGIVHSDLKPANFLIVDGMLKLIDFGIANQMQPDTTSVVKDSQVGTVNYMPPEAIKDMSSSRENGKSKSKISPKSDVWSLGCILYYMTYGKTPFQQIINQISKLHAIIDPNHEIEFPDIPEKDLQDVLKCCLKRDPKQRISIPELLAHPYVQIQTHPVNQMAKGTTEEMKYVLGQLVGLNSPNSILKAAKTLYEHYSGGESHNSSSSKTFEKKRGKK
T38 sequence (P15056 whole entry): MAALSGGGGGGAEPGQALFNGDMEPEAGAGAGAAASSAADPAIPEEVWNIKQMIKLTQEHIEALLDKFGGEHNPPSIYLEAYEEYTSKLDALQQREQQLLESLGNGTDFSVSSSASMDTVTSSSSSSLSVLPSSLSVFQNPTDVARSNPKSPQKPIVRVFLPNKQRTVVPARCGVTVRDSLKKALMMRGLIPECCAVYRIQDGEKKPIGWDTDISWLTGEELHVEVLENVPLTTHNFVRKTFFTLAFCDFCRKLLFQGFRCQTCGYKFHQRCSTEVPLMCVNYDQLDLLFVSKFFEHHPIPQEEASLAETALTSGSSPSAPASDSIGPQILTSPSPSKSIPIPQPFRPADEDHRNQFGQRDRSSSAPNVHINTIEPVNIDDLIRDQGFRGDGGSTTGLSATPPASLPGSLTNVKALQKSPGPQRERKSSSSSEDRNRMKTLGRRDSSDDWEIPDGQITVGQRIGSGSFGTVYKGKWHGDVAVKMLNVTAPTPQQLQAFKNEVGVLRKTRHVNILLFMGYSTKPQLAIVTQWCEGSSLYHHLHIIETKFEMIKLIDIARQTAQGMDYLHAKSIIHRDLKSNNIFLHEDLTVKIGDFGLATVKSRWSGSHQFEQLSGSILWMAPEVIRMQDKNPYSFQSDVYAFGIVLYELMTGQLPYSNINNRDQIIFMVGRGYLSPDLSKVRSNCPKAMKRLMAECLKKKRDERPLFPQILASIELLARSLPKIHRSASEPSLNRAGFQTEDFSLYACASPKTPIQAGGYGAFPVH
T36 sequence (Q9BYT3 whole entry): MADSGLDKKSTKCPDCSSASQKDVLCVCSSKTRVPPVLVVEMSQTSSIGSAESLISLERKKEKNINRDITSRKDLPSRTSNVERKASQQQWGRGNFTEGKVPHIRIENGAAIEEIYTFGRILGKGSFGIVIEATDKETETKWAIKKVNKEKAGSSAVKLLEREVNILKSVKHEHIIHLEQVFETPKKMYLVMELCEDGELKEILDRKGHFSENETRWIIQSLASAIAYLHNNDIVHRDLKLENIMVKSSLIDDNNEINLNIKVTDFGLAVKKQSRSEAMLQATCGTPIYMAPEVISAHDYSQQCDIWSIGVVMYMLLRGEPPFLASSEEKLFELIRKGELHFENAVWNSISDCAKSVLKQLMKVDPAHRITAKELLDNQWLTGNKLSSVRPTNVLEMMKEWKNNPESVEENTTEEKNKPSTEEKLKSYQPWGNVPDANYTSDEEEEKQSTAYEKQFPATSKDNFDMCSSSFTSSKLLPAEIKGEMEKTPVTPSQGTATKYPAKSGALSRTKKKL
T11 sequence (P53350 whole entry): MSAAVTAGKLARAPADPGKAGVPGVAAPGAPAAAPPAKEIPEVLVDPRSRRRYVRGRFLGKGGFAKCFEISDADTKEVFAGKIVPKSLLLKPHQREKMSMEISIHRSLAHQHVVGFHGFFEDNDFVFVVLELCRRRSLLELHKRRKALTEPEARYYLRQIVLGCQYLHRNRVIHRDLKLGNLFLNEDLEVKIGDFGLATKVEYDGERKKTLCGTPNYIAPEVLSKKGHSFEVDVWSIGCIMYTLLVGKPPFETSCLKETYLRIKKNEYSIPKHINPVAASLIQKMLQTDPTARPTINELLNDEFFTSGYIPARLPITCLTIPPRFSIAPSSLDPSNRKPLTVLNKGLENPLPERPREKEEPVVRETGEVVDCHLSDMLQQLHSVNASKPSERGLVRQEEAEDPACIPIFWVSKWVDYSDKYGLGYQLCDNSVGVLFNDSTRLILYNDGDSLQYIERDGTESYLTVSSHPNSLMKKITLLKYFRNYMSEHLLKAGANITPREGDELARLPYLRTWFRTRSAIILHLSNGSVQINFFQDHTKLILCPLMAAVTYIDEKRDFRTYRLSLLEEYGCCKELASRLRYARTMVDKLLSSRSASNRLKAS
T17 sequence (P04626 23-1255): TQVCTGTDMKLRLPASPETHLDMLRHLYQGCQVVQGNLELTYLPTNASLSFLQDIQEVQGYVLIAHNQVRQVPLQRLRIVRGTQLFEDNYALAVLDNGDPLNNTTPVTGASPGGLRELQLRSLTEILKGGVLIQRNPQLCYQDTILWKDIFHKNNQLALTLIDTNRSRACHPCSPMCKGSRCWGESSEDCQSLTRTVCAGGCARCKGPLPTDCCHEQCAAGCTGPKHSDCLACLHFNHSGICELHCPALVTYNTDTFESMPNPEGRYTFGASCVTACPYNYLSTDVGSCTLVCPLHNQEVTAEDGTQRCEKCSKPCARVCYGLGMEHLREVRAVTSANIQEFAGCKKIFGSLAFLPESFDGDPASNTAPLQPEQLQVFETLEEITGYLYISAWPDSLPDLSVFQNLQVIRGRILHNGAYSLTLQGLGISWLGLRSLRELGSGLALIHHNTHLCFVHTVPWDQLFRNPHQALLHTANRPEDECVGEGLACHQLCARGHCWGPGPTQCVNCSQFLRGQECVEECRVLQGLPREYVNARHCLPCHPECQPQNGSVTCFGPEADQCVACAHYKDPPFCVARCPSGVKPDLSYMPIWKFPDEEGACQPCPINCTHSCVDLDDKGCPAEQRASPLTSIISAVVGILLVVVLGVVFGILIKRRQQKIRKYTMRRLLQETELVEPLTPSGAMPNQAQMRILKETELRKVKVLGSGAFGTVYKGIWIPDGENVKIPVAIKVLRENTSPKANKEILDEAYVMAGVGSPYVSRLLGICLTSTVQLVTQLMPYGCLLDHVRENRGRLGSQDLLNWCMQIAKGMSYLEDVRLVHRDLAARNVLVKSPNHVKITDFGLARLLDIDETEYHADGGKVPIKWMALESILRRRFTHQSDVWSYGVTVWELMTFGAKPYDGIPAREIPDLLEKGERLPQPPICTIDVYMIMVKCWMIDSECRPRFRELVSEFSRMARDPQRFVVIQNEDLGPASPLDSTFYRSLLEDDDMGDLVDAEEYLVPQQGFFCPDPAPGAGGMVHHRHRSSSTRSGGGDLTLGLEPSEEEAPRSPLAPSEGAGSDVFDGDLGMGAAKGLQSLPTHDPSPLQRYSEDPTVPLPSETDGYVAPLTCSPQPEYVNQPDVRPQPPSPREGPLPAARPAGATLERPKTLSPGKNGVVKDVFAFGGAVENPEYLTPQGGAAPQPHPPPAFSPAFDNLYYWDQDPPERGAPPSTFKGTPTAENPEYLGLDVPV
T14 sequence (P43403 whole entry): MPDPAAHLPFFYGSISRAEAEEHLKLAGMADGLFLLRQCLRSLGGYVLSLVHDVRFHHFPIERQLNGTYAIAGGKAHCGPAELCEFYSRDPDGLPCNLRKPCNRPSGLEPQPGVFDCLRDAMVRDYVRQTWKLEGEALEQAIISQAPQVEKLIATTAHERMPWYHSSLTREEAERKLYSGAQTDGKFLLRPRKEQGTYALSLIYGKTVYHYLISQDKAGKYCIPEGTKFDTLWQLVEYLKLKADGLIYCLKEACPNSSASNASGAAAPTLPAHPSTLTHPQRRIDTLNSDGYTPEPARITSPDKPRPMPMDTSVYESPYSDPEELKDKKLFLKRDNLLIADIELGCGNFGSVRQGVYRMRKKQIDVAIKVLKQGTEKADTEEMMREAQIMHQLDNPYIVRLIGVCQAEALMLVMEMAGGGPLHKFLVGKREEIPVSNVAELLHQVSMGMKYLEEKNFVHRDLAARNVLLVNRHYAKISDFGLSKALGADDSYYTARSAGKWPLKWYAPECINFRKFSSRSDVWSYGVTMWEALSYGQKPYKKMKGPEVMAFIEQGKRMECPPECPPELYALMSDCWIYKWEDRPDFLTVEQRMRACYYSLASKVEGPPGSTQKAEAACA

With `CC(C)c1ccc(CC(=O)N2CCN(c3ccc(C#N)nn3)CC2)cc1` [PZ-2891, 6-(4-(2-(4-isopropylphenyl)acetyl)piperazin-1-yl)pyridazine-3-carbonitrile] the remaining binding at 10 µM (CSF1R-autoinhibited) was 93%, the remaining binding at 10 µM (ALK(C1156Y)) was 74% and the remaining binding at 10 µM (KIT) was 75%. It also gave a remaining binding at 10 µM (EPHB3) of 92%, a remaining binding at 10 µM (GRK4) of 52% and a remaining binding at 10 µM (MUSK) of 95%. For the same compound, the remaining binding at 10 µM (MYLK2) was 98%, the remaining binding at 10 µM (NEK9) was 96% and the remaining binding at 10 µM (JNK2) was 79%. It also gave a remaining binding at 10 µM (DAPK3) of 100%, a remaining binding at 10 µM (PLK1) of 85% and a remaining binding at 10 µM (NEK10) of 89%. It also gave a remaining binding at 10 µM (ACVR2B) of 100%, a remaining binding at 10 µM (ZAP70) of 96% and a remaining binding at 10 µM (TGFBR2) of 98%. For the same compound, the remaining binding at 10 µM (MKNK1) was 97%, the remaining binding at 10 µM (ERBB2) was 92% and the remaining binding at 10 µM (NEK6) was 91%. It also gave a remaining binding at 10 µM (ACVR1) of 88%, a remaining binding at 10 µM (RIPK4) of 81% and a remaining binding at 10 µM (TRKA) of 100%. The half-life (Plasma stability) was greater than 50 h, the remaining binding at 10 µM (PAK6) was 100% and the remaining binding at 10 µM (CDK4) was 99%. It also gave a remaining binding at 10 µM (TIE1) of 85%, a remaining binding at 10 µM (PLK3) of 78% and a remaining binding at 10 µM (FLT1) of 100%. The remaining binding at 10 µM (MERTK) was 95%, the remaining binding at 10 µM (PIK3CA(Q546K)) was 70% and the remaining binding at 10 µM (CLK1) was 75%. For the same compound, the remaining binding at 10 µM (MAST1) was 61%, the remaining binding at 10 µM (ERK4) was 97% and the remaining binding at 10 µM (MYO3A) was 68%. For the same compound, the remaining binding at 10 µM (TTK) was 96%, the remaining binding at 10 µM (PIK3CA(E542K)) was 64% and the remaining binding at 10 µM (NEK7) was 75%. It also gave a remaining binding at 10 µM (STK33) of 90%, a remaining binding at 10 µM (GAK) of 93% and a remaining binding at 10 µM (BRAF) of 100%. The remaining binding at 10 µM (SLK) was 93%, the remaining binding at 10 µM (TNK1) was 100% and the remaining binding at 10 µM (ARK5) was 94%. For the same compound, the remaining binding at 10 µM (PIM2) was 96%.

Reference: PMC6199309, “A therapeutic approach to pantothenate kinase associated neurodegeneration” (Nature Communications, 2018)
